The results in this text go back to patent publication US7060875B2, “Methods for delaying leaf senescence using the ORE7 gene” (Postech Foundation, priority 2001, dated 2006).

Entries after “also recorded” stand apart in the source; their conditions may differ.

Test [1] deals with wild type Arabidopsis thaliana (Col). The experiment in a line: Chlorophyll content of leaves after phytohormone treatment. Format: in vivo. The following applies: wild type leaves at 25 DAG; 50 μM ABA or 50 μM MeJA in MES buffer, or 4.5 μM ethylene gas; 22° C., continuous light. How it is done:
(§1) In order to measure the chlorophyll content, the respective sample leaves were boiled in 95% ethanol at 80° C., thereby extracting chlorophyll. The chlorophyll content was measured at absorbance of 648 nm and 664 nm, and expressed as chlorophyll concentration per fresh weight of leaves (Vermon et al., Anal. Chem., 32:1142–1150, 1960).
(§2) Further, in the present invention, a change in leaf longevity of the ore7 mutant according to treatment with phytohormones, such as ABA, MeJA and ethylene that are involved in senescence regulation was examined by measuring changes in photosynthesis activity and chlorophyll content. 12 independent leaves at 25 DAG were floated in 2 ml of MES buffer containing 50 μM ABA or 50 μM MeJA. Treatment with ethylene was carried out by culturing Arabidopsis thaliana in a glass box containing 4.5 μM ethylene gas. As a negative control group, MES buffer not containing ABA or MeJA was used. The treatments with phytohormones as described above were carried out for three days at 22° C. with continuous exposure to light. The chlorophyll content and the photosynthesis activity were measured in the same manner as described in Example 2.

The test system is the same in test [2]. The experiment in a line: Northern blot analysis of SEN4 expression after phytohormone treatment. Format: in vivo. The following applies: wild type compared to ore7 mutant; 0, 3, 4 and 5 days after treatment.
For test [3] the test system is unchanged. The experiment in a line: Photosynthesis activity (Fv/Fm of PS II) of leaves after phytohormone treatment. Format: in vivo. The following applies: wild type leaves at 25 DAG; 50 μM ABA or 50 μM MeJA in MES buffer, or 4.5 μM ethylene gas; 22° C., continuous light. The procedure:
(§3) In order to measure photosynthesis activity, a method of Oh et al. (Oh S. A. et al., Plant Mol. Biol., 30: 939, 1996), was used. First, leaves at the respective DAG were dark-treated for 15 minutes and measured for fluorescence of chlorophylls using Plant Efficiency Analyzer (Hansatech). The photosynthesis activity was expressed as photochemical efficiency of photosystem II (PS II) using a fluorescent property of chlorophylls. The photochemical efficiency was expressed as the ratio of maximum variable fluorescence (Fv) to maximum value of fluorescence (Fm) (Fv/Fm). As the ratio is increased, the photosynthesis activity improves.
as §2

The test system of test [4] is longevity-extended mutant ore7. The format is in vivo, Arabidopsis thaliana. The conditions noted are these: ore7 mutant leaves at 25 DAG; 50 μM ABA or 50 μM MeJA in MES buffer, or 4.5 μM ethylene gas; 22° C., continuous light. How it is done:
as §1, §2

Test [5] concerns longevity-extended mutant ore7. Format: in vivo, Arabidopsis thaliana. The following applies: ore7 mutant leaves at 25 DAG; 50 μM ABA or 50 μM MeJA in MES buffer, or 4.5 μM ethylene gas; 22° C., continuous light. How it is done:
as §3, §2
The source holds these as a separate data set.

On to `CC/C=C\CC1C(=O)CCC1CC(=O)OC` (stereo not drawn) [MeJA, methyl jasmonate], for which the “change in chlorophyll content” value in test [1] was “significantly reduced”. Further, the “expression of SEN4 gene” value in test [2] is “highly increased”. In addition, the entries for the “change in photosynthesis activity” value in test [3] and in test [5] were “significantly reduced; also recorded: rapidly decreased” and “slight decrease”, respectively. In addition, in test [4], the “reduction in chlorophyll content” value is listed as “became blunt”.
For the molecule `C=C` [ethylene], in test [1], the “change in chlorophyll content” value was “significantly reduced”. Also, in test [2], the “expression of SEN4 gene” value is “highly increased”. Besides, the “change in photosynthesis activity” value in test [3] was “significantly reduced; also recorded: rapidly decreased”; in test [5], “slight decrease”. Also, the “reduction in chlorophyll content” value in test [4] is listed as “became blunt”.
Taken in the same sequence, the figures for `CC1=CC(=O)CC(C)(C)[C@@]1(O)/C=C/C(C)=C\C(=O)O` [ABA, abscisic acid] were “significantly reduced”, “highly increased”, “significantly reduced; also recorded: rapidly decreased”, “slight decrease” and “became blunt”.
